{"source": "paper PMC6594366", "about": "(Journal of the American Chemical Society, 2018)", "molecular_target": "human serum albumin (HSA) (Homo sapiens, UniProt P02768)", "sequence (P02768 25-609)": "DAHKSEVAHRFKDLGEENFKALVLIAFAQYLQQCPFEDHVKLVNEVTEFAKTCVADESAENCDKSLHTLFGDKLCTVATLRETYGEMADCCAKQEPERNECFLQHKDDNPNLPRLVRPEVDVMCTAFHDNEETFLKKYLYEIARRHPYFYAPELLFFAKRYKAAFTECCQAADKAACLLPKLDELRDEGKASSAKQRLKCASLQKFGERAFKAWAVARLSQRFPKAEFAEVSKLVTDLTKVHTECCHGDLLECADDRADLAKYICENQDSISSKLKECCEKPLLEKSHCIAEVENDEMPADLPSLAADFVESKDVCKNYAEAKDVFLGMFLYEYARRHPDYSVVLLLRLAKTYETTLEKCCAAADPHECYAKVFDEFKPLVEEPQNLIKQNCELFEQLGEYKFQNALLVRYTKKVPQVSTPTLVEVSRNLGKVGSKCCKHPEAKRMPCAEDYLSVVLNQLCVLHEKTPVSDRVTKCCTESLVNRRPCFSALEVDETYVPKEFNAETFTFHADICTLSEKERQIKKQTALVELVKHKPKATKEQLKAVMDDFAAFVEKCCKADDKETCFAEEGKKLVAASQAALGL", "test": "fluorescent probe displaced from HSA by GdLx", "assay_type": "binding"}
{"smiles": "CN(C)c1cccc2c(S(=O)(=O)NCC(=O)O)cccc12", "note": "[dansylglycine]", "values": [{"measurement": "fluorescent probe displaced from HSA by GdLx", "result": "Determined by displacement of fluorescent dansylglycine from HSA upon addition of GdLx"}]}
